Test results published in ChEMBL document CHEMBL1156950, “Synthesis and biological evaluation of 4-anilinoquinolines as potent inhibitors of epidermal growth factor receptor” (J Med Chem, 2010).

Assays:
[1] = tested on: Lymphokine-activated killer T-cell-originated protein kinase; assay: Inhibition of PBK1 at 10 uM assessed as residual activity by [33P]ATP radioactive filter binding assay relative to control
[2] = target: Serine/threonine-protein kinase PAK 2 (Homo sapiens) (UniProt Q13177); assay: Inhibition of PAK2 at 10 uM assessed as residual activity by [33P]ATP radioactive filter binding assay relative to control
Chain of Serine/threonine-protein kinase PAK 2 (Homo sapiens) (Q13177 whole entry): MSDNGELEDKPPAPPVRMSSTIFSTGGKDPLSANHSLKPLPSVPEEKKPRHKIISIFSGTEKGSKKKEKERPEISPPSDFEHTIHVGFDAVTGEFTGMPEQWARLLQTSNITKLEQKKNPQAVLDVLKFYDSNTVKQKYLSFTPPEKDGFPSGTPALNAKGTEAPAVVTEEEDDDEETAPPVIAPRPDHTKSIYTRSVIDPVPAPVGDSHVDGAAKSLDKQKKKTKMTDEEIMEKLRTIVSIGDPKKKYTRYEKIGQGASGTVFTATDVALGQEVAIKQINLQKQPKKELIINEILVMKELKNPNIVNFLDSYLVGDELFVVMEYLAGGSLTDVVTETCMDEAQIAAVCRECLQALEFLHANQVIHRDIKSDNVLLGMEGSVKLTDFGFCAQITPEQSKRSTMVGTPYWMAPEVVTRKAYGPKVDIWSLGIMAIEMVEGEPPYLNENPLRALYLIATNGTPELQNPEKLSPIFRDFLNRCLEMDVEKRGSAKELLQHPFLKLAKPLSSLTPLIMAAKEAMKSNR

[3] = target: T1, Epidermal growth factor receptor (Homo sapiens, UniProt P00533); assay: Inhibition of wild type EGFR by HTRF assay
T1 sequence (P00533 whole entry): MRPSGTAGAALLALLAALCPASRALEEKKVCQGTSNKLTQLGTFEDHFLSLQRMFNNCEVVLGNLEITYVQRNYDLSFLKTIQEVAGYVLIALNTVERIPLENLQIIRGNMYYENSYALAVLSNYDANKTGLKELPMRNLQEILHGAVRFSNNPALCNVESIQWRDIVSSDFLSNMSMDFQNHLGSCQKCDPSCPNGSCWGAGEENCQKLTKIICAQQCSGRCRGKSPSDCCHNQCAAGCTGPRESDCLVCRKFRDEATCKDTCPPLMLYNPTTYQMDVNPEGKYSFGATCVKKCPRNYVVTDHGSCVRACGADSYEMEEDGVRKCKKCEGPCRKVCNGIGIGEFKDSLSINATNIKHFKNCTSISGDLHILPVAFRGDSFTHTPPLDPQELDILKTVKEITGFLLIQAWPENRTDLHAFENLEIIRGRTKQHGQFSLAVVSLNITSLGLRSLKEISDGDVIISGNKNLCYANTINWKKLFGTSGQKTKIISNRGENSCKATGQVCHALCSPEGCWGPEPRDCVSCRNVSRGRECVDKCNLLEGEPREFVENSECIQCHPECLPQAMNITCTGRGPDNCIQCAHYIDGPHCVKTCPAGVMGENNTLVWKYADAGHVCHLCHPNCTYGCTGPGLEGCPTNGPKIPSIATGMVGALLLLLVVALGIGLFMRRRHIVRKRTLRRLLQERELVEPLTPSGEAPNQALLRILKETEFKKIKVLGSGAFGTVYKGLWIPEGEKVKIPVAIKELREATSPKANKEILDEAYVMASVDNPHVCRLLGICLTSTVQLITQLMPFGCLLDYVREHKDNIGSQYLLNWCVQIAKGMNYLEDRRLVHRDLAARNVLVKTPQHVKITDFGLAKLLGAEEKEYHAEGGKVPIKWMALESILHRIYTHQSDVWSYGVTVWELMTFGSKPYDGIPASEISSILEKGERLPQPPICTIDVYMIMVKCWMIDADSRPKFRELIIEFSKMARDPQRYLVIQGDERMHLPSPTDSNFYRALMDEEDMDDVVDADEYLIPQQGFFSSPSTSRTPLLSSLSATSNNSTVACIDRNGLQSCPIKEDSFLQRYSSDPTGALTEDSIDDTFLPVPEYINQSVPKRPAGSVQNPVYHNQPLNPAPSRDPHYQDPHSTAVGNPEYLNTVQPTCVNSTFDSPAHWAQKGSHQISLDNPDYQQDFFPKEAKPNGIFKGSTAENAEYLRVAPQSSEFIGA

[4] = target: Mitogen-activated protein kinase 1 (Homo sapiens) (UniProt P28482); assay: Inhibition of ERK2 at 10 uM assessed as residual activity by [33P]ATP radioactive filter binding assay relative to control
Chain of Mitogen-activated protein kinase 1 (Homo sapiens) (P28482 whole entry): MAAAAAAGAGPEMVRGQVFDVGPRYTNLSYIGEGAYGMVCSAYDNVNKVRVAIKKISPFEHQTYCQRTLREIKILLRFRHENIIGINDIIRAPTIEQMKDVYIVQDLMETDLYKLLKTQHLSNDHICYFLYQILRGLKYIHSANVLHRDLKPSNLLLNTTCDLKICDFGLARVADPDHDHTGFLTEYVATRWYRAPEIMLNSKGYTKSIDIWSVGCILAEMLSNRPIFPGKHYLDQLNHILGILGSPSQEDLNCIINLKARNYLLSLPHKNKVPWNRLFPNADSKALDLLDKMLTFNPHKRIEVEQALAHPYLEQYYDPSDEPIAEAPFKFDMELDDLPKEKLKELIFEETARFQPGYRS

[5] = target: Epidermal growth factor receptor (Homo sapiens, UniProt P00533, L858R); assay: Inhibition of EGFR Leu858Arg mutant by HTRF assay; type: protein assay
Chain of Epidermal growth factor receptor (Homo sapiens, UniProt P00533, L858R) (P00533 25-1210 L858R limits assumed): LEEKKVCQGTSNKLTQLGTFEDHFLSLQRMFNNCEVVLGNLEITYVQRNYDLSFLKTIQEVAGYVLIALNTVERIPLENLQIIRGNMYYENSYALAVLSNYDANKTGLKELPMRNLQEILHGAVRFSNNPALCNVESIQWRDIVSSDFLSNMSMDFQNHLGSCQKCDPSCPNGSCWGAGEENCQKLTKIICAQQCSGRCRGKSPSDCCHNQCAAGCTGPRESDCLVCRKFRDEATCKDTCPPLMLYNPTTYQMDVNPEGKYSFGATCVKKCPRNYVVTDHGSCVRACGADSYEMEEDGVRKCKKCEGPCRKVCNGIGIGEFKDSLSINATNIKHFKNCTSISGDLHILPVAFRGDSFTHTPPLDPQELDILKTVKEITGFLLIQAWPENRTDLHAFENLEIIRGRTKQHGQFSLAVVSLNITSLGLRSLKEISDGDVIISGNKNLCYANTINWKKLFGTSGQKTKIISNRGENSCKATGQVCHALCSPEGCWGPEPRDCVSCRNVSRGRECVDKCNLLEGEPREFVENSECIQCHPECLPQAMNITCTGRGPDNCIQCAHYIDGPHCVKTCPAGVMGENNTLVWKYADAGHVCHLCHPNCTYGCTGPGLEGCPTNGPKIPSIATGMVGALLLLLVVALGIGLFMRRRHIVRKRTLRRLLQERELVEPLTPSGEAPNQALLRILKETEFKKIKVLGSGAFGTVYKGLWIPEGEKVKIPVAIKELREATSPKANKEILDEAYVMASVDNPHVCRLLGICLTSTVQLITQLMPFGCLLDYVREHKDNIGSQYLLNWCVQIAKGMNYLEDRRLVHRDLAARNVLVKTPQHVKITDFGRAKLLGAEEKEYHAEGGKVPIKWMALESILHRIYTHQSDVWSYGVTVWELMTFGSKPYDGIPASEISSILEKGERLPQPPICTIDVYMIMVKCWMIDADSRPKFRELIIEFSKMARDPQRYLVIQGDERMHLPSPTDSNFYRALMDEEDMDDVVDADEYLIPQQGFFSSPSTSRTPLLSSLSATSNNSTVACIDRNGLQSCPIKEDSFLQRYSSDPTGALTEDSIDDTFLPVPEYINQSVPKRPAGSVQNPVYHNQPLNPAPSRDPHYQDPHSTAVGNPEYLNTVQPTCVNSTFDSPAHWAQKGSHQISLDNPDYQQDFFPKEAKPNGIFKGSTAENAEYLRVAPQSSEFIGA

[6] = target: Serine/threonine-protein kinase 26 (Homo sapiens) (UniProt Q9P289); assay: Inhibition of MST4 at 10 uM assessed as residual activity by [33P]ATP radioactive filter binding assay relative to control
Chain of Serine/threonine-protein kinase 26 (Homo sapiens) (Q9P289 2-416 limits assumed): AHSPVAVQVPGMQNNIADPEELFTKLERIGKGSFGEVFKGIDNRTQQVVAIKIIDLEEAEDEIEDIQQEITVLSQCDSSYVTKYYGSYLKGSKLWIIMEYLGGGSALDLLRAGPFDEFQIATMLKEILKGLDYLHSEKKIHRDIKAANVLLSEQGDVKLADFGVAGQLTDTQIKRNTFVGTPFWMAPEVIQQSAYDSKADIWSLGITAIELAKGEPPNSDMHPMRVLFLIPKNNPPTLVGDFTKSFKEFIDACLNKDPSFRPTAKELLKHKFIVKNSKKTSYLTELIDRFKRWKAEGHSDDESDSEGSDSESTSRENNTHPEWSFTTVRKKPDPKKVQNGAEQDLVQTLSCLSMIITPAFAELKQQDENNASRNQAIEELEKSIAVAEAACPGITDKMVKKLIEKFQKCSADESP

[7] = target: T1, Epidermal growth factor receptor; assay: Inhibition of 746-750 sequence deleted EGFR autophosphorylation in human PC9 cells after 24 hrs by immunoblotting; type: cell-based; conditions: PC-9

Compound: CN(C)CCCC(=O)Nc1ccc2nccc(Nc3cccc(Br)c3)c2c1
- Activity [1]: 84%
- Activity [2]: 79%
- IC50 [3]: 1.7 nM
- Activity [4]: 88%
- IC50 [5]: 0.5 nM
- Activity [6]: 80%
- Activity [7]: Dose-dependent effect
